Patent US6984399B2 (Lek Pharmaceuticals d.d., priority 1999, dated 2006)

What was measured:
[1] = particle size and BET specific surface area of lovastatin crystals; format: physicochemical; conditions: for d(0.9) / d(0.1) / d(0.5): particle size; for d(0.9): 90% (volume) of particles below; for Spec. Pov.: specific surface area, BET method
[2] = dissolution of lovastatin samples of varying particle size in water (Table I); format: physicochemical; conditions: suspension in 0.1% Tween 80 diluted 100 times
Excerpt: At first we have prepared three samples of lovastatin* with varying particle size and compared dissolution** of those samples in water (Table I).

[3] = room temperature; cited from earlier work
[4] = oral, cited from earlier work

Row | SMILES | d(0.9) [1] [μm] | Spec. Pov. [1] [m^2/g] | concentration of dissolved lovastatin ([2]; time 0 min) [ng/mL] | concentration of dissolved lovastatin ([2]; time 1 min) [ng/mL] | concentration of dissolved lovastatin ([2]; time 3 min) [ng/mL] | concentration of dissolved lovastatin ([2]; time 5 min) [ng/mL] | concentration of dissolved lovastatin ([2]; time 10 min) [ng/mL] | concentration of dissolved lovastatin ([2]; time 30 min) [ng/mL] | concentration of dissolved lovastatin ([2]; time 50 min) [ng/mL] | d(0.1) [1] [μm] | d(0.5) [1] [μm] | volume of water required to dissolve 20 mg [3] | time to peak concentration in blood of active form ([4]; post-dose) [h] | share of total dose that crosses the intestinal membrane [4] [%]
1 | CC[C@H](C)C(=O)O[C@H]1C[C@@H](C)C=C2C=C[C@H](C)[C@H](CC[C@@H]3C[C@@H](O)CC(=O)O3)[C@H]21 [Example 6, lovastatin] | 22 | – | – | – | – | – | – | – | – | – | – | – | – | –
2 | CC[C@H](C)C(=O)O[C@H]1C[C@@H](C)C=C2C=C[C@H](C)[C@H](CC[C@@H]3C[C@@H](O)CC(=O)O3)[C@H]21 [Example 5, lovastatin] | 77 | 1.3 | – | – | – | – | – | – | – | – | – | – | – | –
3 | CC[C@H](C)C(=O)O[C@H]1C[C@@H](C)C=C2C=C[C@H](C)[C@H](CC[C@@H]3C[C@@H](O)CC(=O)O3)[C@H]21 [B, lovastatin] | 31 | 2.2 | 0 | 500 | 680 | 710 | 780 | 870 | 950 | 1.4 | 7.9 | – | – | –
4 | CC[C@H](C)C(=O)O[C@H]1C[C@@H](C)C=C2C=C[C@H](C)[C@H](CC[C@@H]3C[C@@H](O)CC(=O)O3)[C@H]21 [A, lovastatin] | 22 | 3.3 | 0 | 650 | 770 | 780 | 810 | 880 | 900 | 1.6 | 6 | – | – | –
5 | CC[C@H](C)C(=O)O[C@H]1C[C@@H](C)C=C2C=C[C@H](C)[C@H](CC[C@@H]3C[C@@H](O)CC(=O)O3)[C@H]21 [lovastatin] | – | – | – | – | – | – | – | – | – | – | – | about 15 litres | 2.8 | 31
6 | CC[C@H](C)C(=O)O[C@H]1C[C@@H](C)C=C2C=C[C@H](C)[C@H](CC[C@@H]3C[C@@H](O)CC(=O)O3)[C@H]21 [Example 4, lovastatin] | 163 | – | – | – | – | – | – | – | – | – | – | – | – | –
7 | CC[C@H](C)C(=O)O[C@H]1C[C@@H](C)C=C2C=C[C@H](C)[C@H](CC[C@@H]3C[C@@H](O)CC(=O)O3)[C@H]21 [C, lovastatin] | 163 | 0.7 | 0 | 250 | 300 | 400 | 560 | 820 | 940 | 17 | 54 | – | – | –
